Bounds are passed on as bounds.

Experimental findings from ChEMBL document CHEMBL4811261, “Synthesis and biological evaluation of novel benzo[a]pyridazino[3,4-c]phenazine derivatives” (Bioorg Med Chem Lett, 2021) are described below.

For one assay, the system named is Escherichia. The experiment in a line: Antibacterial activity against Escherichia measured by broth microdilution method. It counts as functional, organism-based.
The next assay concerns Candida albicans. The assay can be described thus: Antifungal activity against Candida albicans measured by broth microdilution method. It counts as functional, organism-based.
A further assay relates to Staphylococcus aureus. The assay can be described thus: Antibacterial activity against Staphylococcus aureus measured by broth microdilution method. It counts as functional, organism-based.
A further assay concerns MCF7. The assay can be described thus: Cytotoxicity against human MCF7 cells assessed as cell viability measured by MTT assay. It counts as functional, cell-based. Background: Formazan colour is commonly taken as a measure of viable cells.
Another assay deals with HEK293. The experiment in a line: Cytotoxicity against human HEK293 cells assessed as cell viability measured by MTT assay. It counts as cell-based.
In the next assay the test system is Bacillus subtilis. The experiment in a line: Antibacterial activity against Bacillus subtilis measured by broth microdilution method. It counts as functional, organism-based. In general terms: Dilution methods test growth across graded concentrations, often in twofold steps.
In another assay the test system is KB. The assay can be described thus: Cytotoxicity against human KB cells assessed as cell viability measured by MTT assay. In kind it is functional, cell-based.
In a further assay the test system is Pseudomonas aeruginosa. The assay can be described thus: Antibacterial activity against Pseudomonas aeruginosa measured by broth microdilution method. It counts as functional, organism-based.
Another assay concerns Salmonella enterica. The experiment in a line: Antibacterial activity against Salmonella enterica measured by broth microdilution method. It counts as functional, organism-based.
The nature of assay [1]: Cytotoxicity against human Lu1 cells assessed as cell viability measured by MTT assay. In kind it is functional, cell-based.
The subject of assay [2] is Limosilactobacillus fermentum. The assay can be described thus: Antibacterial activity against Lactobacillus fermentum measured by broth microdilution method. In kind it is functional, organism-based.
In another assay the test system is HepG2. The assay can be described thus: Cytotoxicity against human HepG2 cells assessed as cell viability measured by MTT assay. It counts as functional, cell-based.

Regarding `COc1cccc(C2=NN(C)c3c(c4nc5ccccc5nc4c4ccccc34)C2c2cccc(OC)c2)c1` (stereo not given), the concentration for half-maximal inhibition (IC50) in the assay on Escherichia is greater than 100 µM; in the assay on Candida albicans, greater than 100 µM; with Staphylococcus aureus, greater than 100 µM; in the assay with MCF7, 70.7 µM; in the assay with HEK293, greater than 100 µM; in the assay on Bacillus subtilis, 90.8 µM. The IC50 in the assay with KB is 64.4 µM; in the assay on Pseudomonas aeruginosa, greater than 100 µM; in the assay with Salmonella enterica, greater than 100 µM; in [1] it was 56 µM; in assay [2], greater than 100 µM; in the assay with HepG2 it was 36.3 µM.
In the case of `CN1N=C(c2cccc(Br)c2)C(c2cccc(Br)c2)c2c1c1ccccc1c1nc3ccccc3nc21` (stereo not given), the IC50 with Escherichia was greater than 100 µM; in the assay with Candida albicans, greater than 100 µM; with Staphylococcus aureus, 84.4 µM; in the assay with MCF7, greater than 100 µM; in the assay on HEK293, greater than 100 µM; in the assay on Bacillus subtilis, 84.6 µM. Besides, the IC50 (with KB; in the assay on Pseudomonas aeruginosa; with Salmonella enterica; in [1]; in assay [2]; with HepG2) was greater than 100 µM in each case.
Turning to `CN1N=C(c2ccc3ccccc3c2)C(c2ccc3ccccc3c2)c2c1c1ccccc1c1nc3ccccc3nc21` (stereo not given), the IC50 in the assay with Escherichia, with Candida albicans, in the assay with Staphylococcus aureus, with MCF7, in the assay with HEK293 and in the assay with Bacillus subtilis was greater than 100 µM each time. Further, the IC50 was greater than 100 µM with KB; greater than 100 µM with Pseudomonas aeruginosa; greater than 100 µM with Salmonella enterica; greater than 100 µM in [1]; greater than 100 µM in assay [2]; 81.4 µM in the assay with HepG2.
For `CN1N=C(c2ccc(S(C)(=O)=O)cc2)C(c2ccc(S(C)(=O)=O)cc2)c2c1c1ccccc1c1nc3ccccc3nc21` (stereo not given), the concentration for half-maximal inhibition (IC50) was greater than 100 µM in the assay on Escherichia; greater than 100 µM in the assay with Candida albicans; greater than 100 µM in the assay on Staphylococcus aureus; 62.7 µM in the assay on MCF7; greater than 100 µM in the assay with HEK293; greater than 100 µM in the assay with Bacillus subtilis. In addition, the IC50 with KB was 62.5 µM; in the assay on Pseudomonas aeruginosa it was greater than 100 µM; in the assay on Salmonella enterica it was greater than 100 µM; in [1], greater than 100 µM; in assay [2], greater than 100 µM; in the assay on HepG2, 44.7 µM.
For `CN1N=C(c2ccc([N+](=O)O)cc2)C(c2ccc([N+](=O)[O-])cc2)c2c1c1ccccc1c1nc3ccccc3nc21` (stereo not given), the half-inhibitory concentration (IC50) with Escherichia is greater than 100 µM; in the assay on Candida albicans it was greater than 100 µM; with Staphylococcus aureus, greater than 100 µM; with MCF7, greater than 100 µM; in the assay on HEK293, greater than 100 µM; with Bacillus subtilis it was 77.9 µM. Besides, the half-maximal inhibitory concentration (IC50) (in the assay on KB; with Pseudomonas aeruginosa; in the assay on Salmonella enterica; in [1]; in [2]; in the assay on HepG2) was greater than 100 µM throughout.
For the compound `CN1N=C(c2ccc(Cl)cc2)C(c2ccc(Cl)cc2)c2c1c1ccccc1c1nc3ccccc3nc21` (stereo not given), the IC50 in the assay on Escherichia, in the assay on Candida albicans, in the assay on Staphylococcus aureus, in the assay on MCF7, with HEK293 and in the assay with Bacillus subtilis was greater than 100 µM throughout. Besides, the IC50 (in the assay with KB; in the assay with Pseudomonas aeruginosa; in the assay with Salmonella enterica; in assay [1]; in assay [2]; in the assay on HepG2) was greater than 100 µM in each case.
As to `CN1N=C(c2ccc(Br)cc2)C(c2ccc(Br)cc2)c2c1c1ccccc1c1nc3ccccc3nc21` (stereo not given), the concentration for half-maximal inhibition (IC50) was greater than 100 µM in the assay on Escherichia; greater than 100 µM in the assay on Candida albicans; 4.21 µM with Staphylococcus aureus; greater than 100 µM in the assay on MCF7; greater than 100 µM with HEK293; 5.91 µM in the assay on Bacillus subtilis. Also, the IC50 (with KB; in the assay with Pseudomonas aeruginosa; in the assay with Salmonella enterica; in [1]; in assay [2]; with HepG2) was greater than 100 µM each time.
In the case of `COc1ccc(C2=NN(C)c3c(c4nc5ccccc5nc4c4ccccc34)C2c2ccc(OC)cc2)cc1` (stereo not given), the 50% inhibitory concentration (IC50) in the assay on Escherichia was greater than 100 µM; in the assay with Candida albicans it was greater than 100 µM; in the assay on Staphylococcus aureus it was greater than 100 µM; in the assay on MCF7, 21.8 µM; in the assay with HEK293, 73.4 µM; in the assay on Bacillus subtilis, greater than 100 µM. Moreover, the IC50 in the assay on KB was 16.7 µM; in the assay on Pseudomonas aeruginosa, greater than 100 µM; with Salmonella enterica it was greater than 100 µM; in assay [1] it was 18.2 µM; in assay [2], greater than 100 µM; with HepG2, 14.6 µM.
For `CN1N=C(c2ccccc2)C(c2ccccc2)c2c1c1ccccc1c1nc3ccccc3nc21` (stereo not given), the IC50 is greater than 100 µM in the assay with Escherichia; greater than 100 µM with Candida albicans; greater than 100 µM with Staphylococcus aureus; 22 µM with MCF7; greater than 100 µM in the assay on HEK293; greater than 100 µM in the assay with Bacillus subtilis. In addition, the IC50 was 19.4 µM in the assay on KB; greater than 100 µM with Pseudomonas aeruginosa; greater than 100 µM in the assay on Salmonella enterica; 18.6 µM in [1]; greater than 100 µM in assay [2]; 10.5 µM in the assay on HepG2.
Regarding `CC1(C)S[C@@H]2[C@H](NC(=O)[C@H](N)c3ccccc3)C(=O)N2[C@H]1C(=O)O` [AMPICILLIN], the results for the IC50 in the assay with Staphylococcus aureus and in the assay with Bacillus subtilis were 0.02 µM and 0.3 µM, respectively.
In the case of `Cc1c2ccncc2c(C)c2c1[nH]c1ccccc12` [ELLIPTECINE], the IC50 is 2.48 µM in the assay with MCF7; 6.58 µM with HEK293; 1.26 µM with KB; 1.83 µM in assay [1]; 1.34 µM with HepG2.

As a reminder, the IC50 is the concentration that inhibits the measured activity by half.
